# According to ChEMBL document CHEMBL1121780, “Synthesis and antiarrhythmic activity of new benzofuran derivatives” (J Med Chem, 1981):
# Values joined by “and” are separate entries in the source; they are usually repeats but may differ in a detail not shown here. Equal entries are not always repeated. Active and inactive are the calls of the source. No cut-off for these calls is given here.
# Key:
# [1] = Toxicity estimated in mouse as LD50 by intravenous administration; format: organism-based; details: in vivo
# Canis familiaris [2] = experiment: Activity against harris coronary ligation induced ventricular arrhythmia was measured as percent of initial sinus complexes after dose 1 mg/kg iv; format: functional, Canis lupus familiaris, Cardiac ventricle
# Canis familiaris [3] = experiment: Activity against ouabain-induced ventricular arrhythmia was measured as percent of sinus rhythm recovery at dose of 1 mg/kg iv; format: functional, Canis lupus familiaris, Cardiac ventricle
# Canis familiaris [4] = species: Canis familiaris; experiment: Duration for the antiarrhythmic activity was measured; format: functional, Canis lupus familiaris, Heart
# Canis familiaris [5] = experiment: Activity against harris coronary ligation induced ventricular arrhythmia was measured as percent of final sinus complexes after dose 1 mg/kg iv; format: functional, Canis lupus familiaris, Cardiac ventricle
# Canis familiaris [6] = species: Canis familiaris; experiment: Duration for the sinus rhythm recovery was measured; format: functional, Canis lupus familiaris
# Canis familiaris [7] = experiment: Activity against ouabain-induced ventricular arrhythmia was measured as percent of sinus rhythm recovery at dose of 10 mg/kg iv; format: functional, Canis lupus familiaris, Cardiac ventricle
# Canis familiaris [8] = experiment: Activity against harris coronary ligation induced ventricular arrhythmia was measured as percent of final sinus complexes after dose 10 mg/kg iv; format: functional, Canis lupus familiaris, Cardiac ventricle
# Canis familiaris [9] = experiment: Activity against harris coronary ligation induced ventricular arrhythmia was measured as percent of initial sinus complexes after dose mg/kg, iv=25; format: functional, Canis lupus familiaris, Cardiac ventricle
# Canis familiaris [10] = experiment: Activity against harris coronary ligation induced ventricular arrhythmia was measured as percent of initial sinus complexes after dose mg/kg, iv=12.5; format: functional, Canis lupus familiaris, Cardiac ventricle
# Canis familiaris [11] = experiment: Activity against harris coronary ligation induced ventricular arrhythmia was measured as percent of initial sinus complexes after dose 10 mg/kg iv; format: functional, Canis lupus familiaris, Cardiac ventricle
# Canis familiaris [12] = experiment: Activity against harris coronary ligation induced ventricular arrhythmia was measured as percent of final sinus complexes after dose mg/kg, iv; format: functional, Canis lupus familiaris, Cardiac ventricle
# Canis familiaris [13] = experiment: Activity against harris coronary ligation induced ventricular arrhythmia was measured as percent of initial sinus complexes after dose mg/kg, iv=2; format: functional, Canis lupus familiaris, Cardiac ventricle
# Canis familiaris [14] = experiment: Activity against ouabain-induced ventricular arrhythmia was measured as percent of sinus rhythm recovery at dose of 2 mg/kg iv; format: functional, Canis lupus familiaris, Cardiac ventricle
# Canis familiaris [15] = experiment: Activity against harris coronary ligation induced ventricular arrhythmia was measured as percent of final sinus complexes after dose mg/kg, iv=2; format: functional, Canis lupus familiaris, Cardiac ventricle
# [16] = Toxicity was estimated in mouse as LD50 by intravenous administration; LD50=1000 (40%); format: organism-based; details: in vivo
# Canis familiaris [17] = experiment: Activity against ouabain-induced ventricular arrhythmia was measured as percent of sinus rhythm recovery at dose of 6 mg/kg iv; format: functional, Canis lupus familiaris, Cardiac ventricle
# Canis familiaris [18] = experiment: Activity against ouabain-induced ventricular arrhythmia was measured as percent of sinus rhythm recovery at the dose of 2 mg/kg iv; format: functional, Canis lupus familiaris, Cardiac ventricle
# Canis familiaris [19] = experiment: Activity against harris coronary ligation induced ventricular arrhythmia was measured as percent of initial sinus complexes after dose 2 mg/kg iv; format: organism-based, Canis lupus familiaris, Cardiac ventricle; set-up: dose 2 mg/kg, route intravenous; details: dog, in vivo
# Canis familiaris [20] = experiment: Activity against harris coronary ligation induced ventricular arrhythmia was measured as percent of final sinus complexes after dose 2 mg/kg, iv; format: functional, Canis lupus familiaris, Cardiac ventricle
# Canis familiaris [21] = species: Canis familiaris; experiment: Duration for the antiarrhythmic activity was measured; 10-60; format: functional, Canis lupus familiaris, Heart
# Canis familiaris [22] = experiment: Activity against ouabain-induced ventricular arrhythmia was measured as percent of sinus rhythm recovery at dose of 8 mg/kg iv; format: functional, Canis lupus familiaris, Cardiac ventricle
# Canis familiaris [23] = experiment: Activity against harris coronary ligation induced ventricular arrhythmia was measured as percent of initial sinus complexes after dose 2 mg/kg po; format: functional, Canis lupus familiaris, Cardiac ventricle
# Canis familiaris [24] = experiment: (§1) Activity against harris coronary ligation induced ventricular arrhythmia was measured as percent of final sinus complexes after dose 12.5 mg/kg, po; format: functional, Canis lupus familiaris, Cardiac ventricle
# Canis familiaris [25] = experiment: Activity against harris coronary ligation induced ventricular arrhythmia was measured as percent of final sinus complexes after dose 2 mg/kg, po; format: functional, Canis lupus familiaris, Cardiac ventricle
# Canis familiaris [26] = experiment: as §1; format: functional, Canis lupus familiaris, Cardiac ventricle; remark: listed apart in the source
# Canis familiaris [27] = experiment: Activity against harris coronary ligation induced ventricular arrhythmia was measured as percent of final sinus complexes after dose 5 mg/kg iv; format: functional, Canis lupus familiaris, Cardiac ventricle
# Canis familiaris [28] = experiment: Activity against harris coronary ligation induced ventricular arrhythmia was measured as percent of initial sinus complexes after dose 2 mg/kg, iv; format: functional, Canis lupus familiaris, Cardiac ventricle
# Canis familiaris [29] = experiment: Activity against harris coronary ligation induced ventricular arrhythmia was measured as percent of initial sinus complexes after dose 5 mg/kg iv; format: functional, Canis lupus familiaris, Cardiac ventricle
# Canis familiaris [30] = experiment: Activity against harris coronary ligation induced ventricular arrhythmia was measured as percent of final sinus complexes after dose 20 mg/kg, po; format: functional, Canis lupus familiaris, Cardiac ventricle
# Canis familiaris [31] = experiment: Activity against harris coronary ligation induced ventricular arrhythmia was measured as percent of final sinus complexes after dose 2 mg/kg iv; format: functional, Canis lupus familiaris, Cardiac ventricle
# Canis familiaris [32] = experiment: Activity against harris coronary ligation induced ventricaulr arrhythmia was measured as percent of initial sinus complexes after dose 12.5 mg/kg po; format: functional, Canis lupus familiaris
# Canis familiaris [33] = experiment: Activity against harris coronary ligation induced ventricular arrhythmia was measured as percent of final sinus complexes after dose 10 mg/kg, iv; format: functional, Canis lupus familiaris, Cardiac ventricle
# Canis familiaris [34] = experiment: Activity against harris coronary ligation induced ventricular arrhythmia was measured as percent of initial sinus complexes after dose 10 mg/kg, iv; format: functional, Canis lupus familiaris, Cardiac ventricle
# Canis familiaris [35] = experiment: Activity against ouabain-induced ventricular arrhythmia was measured as percent of sinus rhythm recovery at dose of 5 mg/kg iv; format: functional, Canis lupus familiaris, Cardiac ventricle
# Canis familiaris [36] = experiment: Activity against harris coronary ligation induced ventricular arrhythmia was measured as percent of initial sinus complexes after dose 5 mg/kg, iv; format: functional, Canis lupus familiaris, Cardiac ventricle
# Canis familiaris [37] = experiment: Activity against harris coronary ligation induced ventricular arrhythmia was measured as percent of final sinus complexes after dose 5 mg/kg, iv; format: functional, Canis lupus familiaris, Cardiac ventricle
# [38] = Toxicity was estimated in mouse as LD50 by intravenous administration; LD50 = 200(30%); format: organism-based; details: in vivo
# Canis familiaris [39] = experiment: Activity against harris coronary ligation induced ventricular arrhythmia was measured as percent of initial sinus complexes after dose 25 mg/kg po; format: functional, Canis lupus familiaris, Cardiac ventricle
# Canis familiaris [40] = experiment: Activity against harris coronary ligation induced ventricular arrhythmia was measured as percent of final sinus complexes after dose 25 mg/kg po; format: functional, Canis lupus familiaris, Cardiac ventricle
# Canis familiaris [41] = experiment: Activity against ouabain-induced ventricular arrhythmia was measured as percent of sinus rhythm recovery at dose of 2.5 mg/kg iv; format: functional, Canis lupus familiaris, Cardiac ventricle
# Canis familiaris [42] = experiment: Activity against harris coronary ligation induced ventricular arrhythmia was measured as percent of initial sinus complexes after dose mg/kg, iv=6; Inactive; format: functional, organism-based; details: Canis lupus familiaris; Cardiac ventricle
# Canis familiaris [43] = experiment: Activity against harris coronary ligation induced ventricular arrhythmia was measured as percent of final sinus complexes after dose 25 mg/kg, po; format: functional, Canis lupus familiaris, Cardiac ventricle
# Canis familiaris [44] = experiment: Activity against harris coronary ligation induced ventricular arrhythmia was measured as percent of initial sinus complexes after dose 12.5 mg/kg, po; format: functional, Canis lupus familiaris, Cardiac ventricle
# Canis familiaris [45] = experiment: Activity against harris coronary ligation induced ventricular arrhythmia was measured as percent of initial sinus complexes after dose 2.5 mg/kg, iv; format: functional, Canis lupus familiaris, Cardiac ventricle
# Canis familiaris [46] = experiment: Activity against harris coronary ligation induced ventricular arrhythmia was measured as percent of initial sinus complexes after dose 25 mg/kg, po; format: functional, Canis lupus familiaris, Cardiac ventricle
# Canis familiaris [47] = experiment: Activity against harris coronary ligation induced ventricular arrhythmia was measured as percent of initial sinus complexes after dose 6.25 mg/kg, po; format: functional, Canis lupus familiaris, Cardiac ventricle
# Canis familiaris [48] = experiment: Activity against harris coronary ligation induced ventricular arrhythmia was measured as percent of final sinus complexes after dose 6.25 mg/kg, po; format: functional, Canis lupus familiaris, Cardiac ventricle
# Canis familiaris [49] = experiment: Activity against harris coronary ligation induced ventricular arrhythmia was measured as percent of final sinus complexes after dose 2.5 mg/kg, iv; format: functional, Canis lupus familiaris, Cardiac ventricle
structure (smiles),measurement,setting,value
COc1c(NC(=O)OC(C)C)c(OCCN2CCCCC2)c(OC)c2occc12,LD50,[1],10 mg/kg
same,ISC,Canis familiaris [2],30%
same,SRR,Canis familiaris [3],100%
same,Duration,Canis familiaris [4],10 min
same,FSC,Canis familiaris [5],50%
same,Duration,Canis familiaris [6],>100 min
C=C[C@H]1CN2CC[C@H]1C[C@@H]2[C@@H](O)c1ccnc2ccc(OC)cc12 [QUINIDINE],SRR,Canis familiaris [7],50%
same,LD50,[1],89 mg/kg
same,FSC,Canis familiaris [8],67%
same,Duration,Canis familiaris [4],>90 min and 120 min and 240 min
same,ISC,Canis familiaris [9],9%
same,ISC,Canis familiaris [10],9%
same,ISC,Canis familiaris [11],5%
same,FSC,Canis familiaris [12],25% and 56%
same,Duration,Canis familiaris [6],60 min
CCCN(CCC)CCOc1c(NC(=O)NC)c(OC)c2ccoc2c1OC,ISC,Canis familiaris [13],30%
same,LD50,[1],52 mg/kg
same,Duration,Canis familiaris [4],5 min
same,SRR,Canis familiaris [14],100%
same,FSC,Canis familiaris [15],37%
same,Duration,Canis familiaris [6],45 min
CNC(=O)Nc1c(OCCN2CCC2)c(OC)c2occc2c1OC,LD50,[16],1000 mg/kg
same,SRR,Canis familiaris [14],100%
same,Duration,Canis familiaris [6],10 min
COc1c(NC(C)=O)c(OCCNC(C)C)c(OC)c2occc12,LD50,[1],88 mg/kg
same,SRR,Canis familiaris [17],33%
same,Duration,Canis familiaris [6],<30 min
CNC(=O)Nc1c(OCCN2CCCCC2)cc2occc2c1OC,LD50,[1],100 mg/kg
same,SRR,Canis familiaris [18],100%
CNC(=O)Nc1c(OCCN(C)C)c(OC)c2occc2c1OC,ISC,Canis familiaris [19],5%
same,LD50,[1],100 mg/kg
same,SRR,Canis familiaris [3],100%
same,FSC,Canis familiaris [20],20%
same,Duration,Canis familiaris [21],10 min
same,Duration,Canis familiaris [6],30 min
CNC(=O)Nc1c(OC)c2c(c(OC)c1OCCN1CCCCC1)OCC2,LD50,[1],180 mg/kg
same,SRR,Canis familiaris [22],100%
same,Duration,Canis familiaris [6],<30 min
CNC(=O)Nc1c(OCCN2CCCC2)c(OC)c2occc2c1OC [CAROCAINIDE],LD50,[1],88 mg/kg
same,ISC,Canis familiaris [23],33%
same,FSC,Canis familiaris [24],95%
same,FSC,Canis familiaris [25],100%
same,FSC,Canis familiaris [26],81%
same,FSC,Canis familiaris [27],100%
same,SRR,Canis familiaris [14],100%
same,ISC,Canis familiaris [28],15%
same,ISC,Canis familiaris [29],18%
same,FSC,Canis familiaris [30],100%
same,FSC,Canis familiaris [31],75%
same,ISC,Canis familiaris [32],19% and 12%
same,Duration,Canis familiaris [6],69 min
CNC(=O)Nc1c(OCCN2CCN(C)CC2)c(OC)c2occc2c1OC,LD50,[1],145 mg/kg
same,FSC,Canis familiaris [33],98%
same,ISC,Canis familiaris [34],18%
same,Duration,Canis familiaris [4],30 min and <30 min
same,SRR,Canis familiaris [35],100%
same,ISC,Canis familiaris [36],1%
same,FSC,Canis familiaris [37],50%
same,Duration,Canis familiaris [6],120 min
COc1c(NC(C)=O)c(OCCN2CCN(C)CC2)c(OC)c2occc12,SRR,Canis familiaris [7],66%
same,LD50,[38],200 mg/kg
same,Duration,Canis familiaris [6],<30 min
CC(C)N(CCC(C(N)=O)(c1ccccc1)c1ccccn1)C(C)C (configuration not stated) [DISOPYRAMIDE],LD50,[1],60 mg/kg
same,ISC,Canis familiaris [39],1%
same,FSC,Canis familiaris [40],100%
same,FSC,Canis familiaris [27],100%
same,Duration,Canis familiaris [4],60 min and 180 min
same,SRR,Canis familiaris [35],100%
same,ISC,Canis familiaris [29],19%
same,Duration,Canis familiaris [6],25 min
COc1c(NC(C)=O)c(OCCN2CCCCC2)c(OC)c2occc12,LD50,[1],52 mg/kg
same,SRR,Canis familiaris [41],100%
same,ISC,Canis familiaris [42],inactive
same,Duration,Canis familiaris [6],>50 min
CNC(=O)Nc1c(OCCN2CCCCC2)c(OC)c2occc2c1OC [MUROCAINIDE],LD50,[1],50 mg/kg
same,FSC,Canis familiaris [43],98%
same,FSC,Canis familiaris [24],90%
same,ISC,Canis familiaris [44],5%
same,ISC,Canis familiaris [45],3%
same,SRR,Canis familiaris [14],100%
same,ISC,Canis familiaris [46],13%
same,ISC,Canis familiaris [36],14%
same,ISC,Canis familiaris [47],1%
same,FSC,Canis familiaris [37],85%
same,FSC,Canis familiaris [48],14%
same,FSC,Canis familiaris [49],45%
same,Duration,Canis familiaris [6],>60 min
